Literature values as cited in US7560455B2, “3-Amino-4-phenylbutanoic acid derivatives as dipeptidyl peptidase inhibitors for the treatment or prevention of diabetes” (Merck & Co., Inc., priority 2003, dated 2009).
Each block holds one molecule with its values, some of them ahead of it.

Columns and labels:
cardiac allograft = conditions: rats; doubled from day 7 to day 14
hematopoiesis = conditions: mouse, cyclophosphamide-induced neutropenia
DP-IV = biological target: T1, DP-IV (Homo sapiens, UniProt P27487)
T1 construct: GRF is rapidly degraded in plasma to GRF[3-44]
T1 sequence (P27487 whole entry): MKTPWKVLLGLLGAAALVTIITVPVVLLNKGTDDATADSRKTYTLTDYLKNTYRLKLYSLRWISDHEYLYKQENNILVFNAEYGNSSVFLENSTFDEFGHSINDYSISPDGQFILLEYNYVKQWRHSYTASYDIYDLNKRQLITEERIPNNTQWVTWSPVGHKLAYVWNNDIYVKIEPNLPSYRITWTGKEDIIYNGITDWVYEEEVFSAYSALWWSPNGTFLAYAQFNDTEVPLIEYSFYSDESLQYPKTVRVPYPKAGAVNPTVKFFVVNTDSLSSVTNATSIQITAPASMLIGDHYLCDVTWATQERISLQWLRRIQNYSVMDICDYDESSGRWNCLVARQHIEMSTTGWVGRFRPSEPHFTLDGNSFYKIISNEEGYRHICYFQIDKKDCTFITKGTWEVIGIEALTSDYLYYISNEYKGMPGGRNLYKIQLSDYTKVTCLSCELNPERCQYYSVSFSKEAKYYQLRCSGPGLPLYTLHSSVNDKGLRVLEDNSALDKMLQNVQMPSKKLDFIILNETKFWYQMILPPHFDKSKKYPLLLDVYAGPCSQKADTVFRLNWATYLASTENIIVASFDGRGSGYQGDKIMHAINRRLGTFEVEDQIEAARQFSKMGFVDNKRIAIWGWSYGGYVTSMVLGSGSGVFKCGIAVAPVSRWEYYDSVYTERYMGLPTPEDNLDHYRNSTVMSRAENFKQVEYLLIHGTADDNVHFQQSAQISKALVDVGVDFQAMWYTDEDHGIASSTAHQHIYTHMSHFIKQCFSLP

Molecule: CC(C)N1CCC(c2ccccc2)(c2ccccc2)CC1 [Prodipine, Pro-Pro-diphenyl-phosphonate]
cardiac allograft survival (cardiac allograft): 14 day

Molecule: CC(C)[C@H](N)C(=O)N1CCC[C@H]1B(O)O [Val-Boro-Pro]
effect on hematopoiesis (hematopoiesis): stimulated hematopoiesis

effect on degradation of GRF in plasma to GRF[3-44] (DP-IV): prevented
Molecule: diprotin A
